Measured values: patent US6737383B1, “Herbicidal oxadiazolidines” (priority 1999, dated 2004)

Tests used:
[1] = tested on: Pioneer hybrid P33G26 corn; experiment: Test H corn injury, herbicide and safener mixtures applied to soil; details: in vivo
Procedure: Mixtures of the herbicide and safeners were applied to pots of a soil mixture previously sown with corn. Pioneer hybrid P33G26 corn was sown in pots containing a sterile mix of 60% sassafras soil and 40% Metro Mix 360® growing medium (pH 6.7, O.M. 2%). Test compounds were dissolved in AGWT (a mixture of 0.25% Tween 20 surfactant, 5% water, 5% glycerin and 89.75% acetone) and sprayed on the soil as pots passed under a stationary 8002E nozzle. Treatments were applied at a 33 gal/acre rate of the AGWT carrier. After treatment, the test pots were placed in the greenhouse and watered. There were two replications for each treatment. Each pot contained eight corn seeds. The pots within each replication were placed in random positions on greenhouse benches. Test plants were fertilized as they were watered with approximately 200 ppm of N (as water soluble 20-20-20 fertilizer) which was metered into the water lines with a fertilizer injector. Daytime temperatures was 23-30° C. and night time temperature was 18-25° C. The test plants were supplemented with artificial lighting. The lights were activated whenever the natural light intensity dropped below the programmed threshold. Day length was maintained for approximately 14 hours.
The test was evaluated approximately 12 days after treatment. […]

rape = experiment: Test B pre/postemergence rape; assay type: in vivo, Brassica napus; details: for Rape plant response rating: scale of 0 to 10 where 0 is no effect and 10 is complete control
In short: (§1)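 Herbicidal effect was estimated by eye on a ten-point control scale after plants spent twelve to sixteen days in a greenhouse following soil or foliar treatment. Foliar sprays targeted plants at one to four leaves; all doses were formulated in a non-phytotoxic solvent with surfactant.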

purple nutsedge = experiment: Test B pre/postemergence purple nutsedge; assay type: in vivo, Cyperus rotundus; details: for Nutsedge plant response rating: scale of 0 to 10 where 0 is no effect and 10 is complete control
In short: as §1

bamyardgrass = experiment: Test B flood test barnyardgrass; assay type: in vivo, Echinochloa crus-galli
In short: (§2)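 Read-out is a visual response score from 0 (no effect) to 10 (complete control), assigned by comparison with untreated controls. Treatment was applied at the 2-leaf stage, and plants stayed in the greenhouse for twelve to sixteen days before scoring.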

rice = experiment: Test B flood test rice; assay type: in vivo, Oryza sativa
In short: as §2

velvetleaf = experiment: Test B pre/postemergence velvetleaf; assay type: in vivo, Abutilon theophrasti; details: for Velvetleaf plant response rating: scale of 0 to 10 where 0 is no effect and 10 is complete control
In short: as §1

sugar beet = experiment: Test B pre/postemergence sugar beet; assay type: in vivo, Beta vulgaris; details: for Sugarbeets plant response rating: scale of 0 to 10 where 0 is no effect and 10 is complete control
In short: as §1

soybean = experiment: Test B pre/postemergence soybean; assay type: in vivo, Glycine max
In short: as §1

surinam grass = experiment: Test B pre/postemergence surinam grass; assay type: in vivo, Brachiaria decumbens
In short: as §1

morningglory = experiment: Test B pre/postemergence morningglory; assay type: in vivo, Ipomoea hederacea; details: for Morningglory plant response rating: scale of 0 to 10 where 0 is no effect and 10 is complete control
In short: as §1

crabgrass = experiment: Test B pre/postemergence crabgrass; assay type: in vivo, Digitaria sanguinalis; details: for Crabgrass plant response rating: scale of 0 to 10 where 0 is no effect and 10 is complete control
In short: as §1

smallflower flatsedge = experiment: Test B flood test smallflower flatsedge; assay type: in vivo, Cyperus difformis
In short: as §2

corn = experiment: Test B pre/postemergence corn; assay type: in vivo, Zea mays; details: for Corn plant response rating: scale of 0 to 10 where 0 is no effect and 10 is complete control
In short: as §1

giant foxtail = experiment: Test B pre/postemergence giant foxtail; assay type: in vivo, Setaria faberii; details: for Giant foxtail plant response rating: scale of 0 to 10 where 0 is no effect and 10 is complete control
In short: as §1

wild oat = experiment: Test B pre/postemergence wild oat; assay type: in vivo, Avena fatua; details: for Wild oats plant response rating: scale of 0 to 10 where 0 is no effect and 10 is complete control
In short: as §1

duck salad = experiment: Test B flood test duck salad; assay type: in vivo, Heteranthera limosa
In short: as §2

wheat = experiment: Test B pre/postemergence wheat; assay type: in vivo, Triticum aestivum; details: for Wheat plant response rating: scale of 0 to 10 where 0 is no effect and 10 is complete control
In short: as §1

pigweed = experiment: Test B pre/postemergence pigweed; assay type: in vivo, Amaranthus retroflexus; details: for Redroot pigweed plant response rating: scale of 0 to 10 where 0 is no effect and 10 is complete control
In short: as §1

bedstraw = experiment: Test B pre/postemergence bedstraw; assay type: in vivo, Galium aparine
In short: as §1

cocklebur = experiment: Test B pre/postemergence cocklebur; assay type: in vivo, Xanthium strumarium; details: for Cocklebur plant response rating: scale of 0 to 10 where 0 is no effect and 10 is complete control
In short: as §1

blackgrass = experiment: Test B pre/postemergence blackgrass; assay type: in vivo, Alopecurus myosuroides
In short: as §1

[2] = Postemergence, Rate 125 g/ha, scale 0 to 10, 0 is no effect, 10 is complete control
[3] = Preemergence, Rate 62 g/ha, scale 0 to 10 (0 no effect, 10 complete control)
[4] = Rate 500 g/ha, Postemergence, scale 0 to 10, 0 no effect, 10 complete control
[5] = Postemergence (flood test), Rate 125 g/ha, scale 0 to 10, 0 is no effect, 10 is complete control
[6] = Rate 62 g/ha, Postemergence (flood test species), scale of 0 to 10 where 0 is no effect and 10 is complete control
[7] = Rate 500 g/ha, listed under Postemergence (flood test species), scale 0 to 10, 0 no effect, 10 complete control
[8] = Rate 62 g/ha, Postemergence, scale of 0 to 10 where 0 is no effect and 10 is complete control
[9] = Preemergence, Rate 250 g/ha, scale of 0 to 10 where 0 is no effect and 10 is complete control
[10] = Preemergence, Rate 500 g/ha, scale of 0 to 10 where 0 is no effect and 10 is complete control
[11] = Rate 250 g/ha, Postemergence, scale of 0 to 10 where 0 is no effect and 10 is complete control

SMILES: CC1COc2ccccc2N1C(=O)C(Cl)Cl (stereo not drawn) [benoxacor]
- Safening of Compound 113 on corn [1]: functioned very effectively as safeners

SMILES: CC(C)N(C(=O)n1oc(=O)n(C2CCCO2)c1=O)c1ccc(F)cc1 (stereo not drawn) [Compound 345]
- Plant response rating, Rape (rape; [2]): 0
- Plant response rating, Rape (rape; [3]): 0
- Rape plant response rating (0 to 10 scale) (rape; Preemergence, Rate 125 g/ha): 0
- Rape plant response rating (rape; Preemergence, Rate 250 g/ha): 0
- Rape plant response rating (rape; Preemergence, Rate 500 g/ha): 0
- Rape plant response rating (rape; Rate 62 g/ha, Postemergence): 0
- Plant response rating, Rape (rape; [4]): 0
- Plant response rating, Nutsedge (purple nutsedge; [2]): 0
- Plant response rating, Nutsedge (purple nutsedge; [3]): 0
- Nutsedge plant response rating (0 to 10 scale) (purple nutsedge; Preemergence, Rate 125 g/ha): 0
- Nutsedge plant response rating (purple nutsedge; Preemergence, Rate 250 g/ha): 0
- Nutsedge plant response rating (purple nutsedge; Preemergence, Rate 500 g/ha): 0
- Nutsedge plant response rating (purple nutsedge; Rate 62 g/ha, Postemergence): 0
- Plant response rating, Nutsedge (purple nutsedge; [4]): 0
- Plant response rating, Barnyardgrass (bamyardgrass; [5]): 0
- Barnyardgrass plant response rating (bamyardgrass; [6]): 0
- Plant response rating, Barnyardgrass (bamyardgrass; Rate 250 g/ha, Postemergence (flood test species), scale of 0 to 10 where 0 is no effect and 10 is complete control): 0
- Plant response rating, Barnyardgrass (bamyardgrass; [7]): 0
- Plant response rating, Rice (rice; [5]): 0
- Rice plant response rating (rice; [6]): 0
- Plant response rating, Rice (rice; [7]): 0
- Plant response rating, Velvetleaf (velvetleaf; [2]): 0
- Plant response rating, Velvetleaf (velvetleaf; [3]): 0
- Velvetleaf plant response rating (0 to 10 scale) (velvetleaf; Preemergence, Rate 125 g/ha): 0
- Velvetleaf plant response rating (velvetleaf; Preemergence, Rate 250 g/ha): 0
- Velvetleaf plant response rating (velvetleaf; Preemergence, Rate 500 g/ha): 0
- Velvetleaf plant response rating (velvetleaf; Rate 62 g/ha, Postemergence): 0
- Plant response rating, Velvetleaf (velvetleaf; [4]): 0
- Plant response rating, Sugarbeets (sugar beet; [2]): 0
- Plant response rating, Sugarbeets (sugar beet; [3]): 0
- Sugarbeets plant response rating (0 to 10 scale) (sugar beet; Preemergence, Rate 125 g/ha): 0
- Sugarbeets plant response rating (sugar beet; Preemergence, Rate 250 g/ha): 0
- Sugarbeets plant response rating (sugar beet; Preemergence, Rate 500 g/ha): 0
- Sugarbeets plant response rating (sugar beet; Rate 62 g/ha, Postemergence): 0
- Plant response rating, Sugarbeets (sugar beet; [4]): 0
- Plant response rating, Soybean (soybean; [2]): 0
- Soybean plant response rating (0 to 10 scale) (soybean; Preemergence, Rate 125 g/ha): 0
- Soybean plant response rating (soybean; [8]): 0
- Plant response rating, Soybean (soybean; [4]): 0
- Plant response rating, B. signalgrass (surinam grass; [2]): 0
- Plant response rating, B. signalgrass (surinam grass; [3]): 0
- B. signalgrass plant response rating (0 to 10 scale, 0 is no effect, 10 is complete control) (surinam grass; Preemergence, Rate 125 g/ha): 0
- B. signalgrass plant response rating (surinam grass; [9]): 0
- B. signalgrass plant response rating (surinam grass; [10]): 0
- B. signalgrass plant response rating (surinam grass; [8]): 0
- Plant response rating, B. signalgrass (surinam grass; [11]): 0
- Plant response rating, B. signalgrass (surinam grass; [4]): 0
- Plant response rating, Morningglory (morningglory; [2]): 0
- Plant response rating, Morningglory (morningglory; [3]): 0
- Morningglory plant response rating (0 to 10 scale) (morningglory; Preemergence, Rate 125 g/ha): 0
- Morningglory plant response rating (morningglory; Preemergence, Rate 250 g/ha): 0
- Morningglory plant response rating (morningglory; Preemergence, Rate 500 g/ha): 0
- Morningglory plant response rating (morningglory; Rate 62 g/ha, Postemergence): 0
- Plant response rating, Morningglory (morningglory; [4]): 0
- Plant response rating, Crabgrass (crabgrass; [2]): 0
- Plant response rating, Crabgrass (crabgrass; [3]): 0
- Crabgrass plant response rating (0 to 10 scale) (crabgrass; Preemergence, Rate 125 g/ha): 0
- Crabgrass plant response rating (crabgrass; Preemergence, Rate 250 g/ha): 0
- Crabgrass plant response rating (crabgrass; Preemergence, Rate 500 g/ha): 0
- Crabgrass plant response rating (crabgrass; Rate 62 g/ha, Postemergence): 0
- Plant response rating, Crabgrass (crabgrass; [4]): 0
- Plant response rating, S. Flatsedge (smallflower flatsedge; [5]): 0
- S. Flatsedge plant response rating (smallflower flatsedge; [6]): 0
- Plant response rating, S. Flatsedge (smallflower flatsedge; [7]): 0
- Plant response rating, Corn (corn; [2]): 0
- Plant response rating, Corn (corn; [3]): 0
- Corn plant response rating (0 to 10 scale) (corn; Preemergence, Rate 125 g/ha): 0
- Corn plant response rating (corn; Preemergence, Rate 250 g/ha): 0
- Corn plant response rating (corn; Preemergence, Rate 500 g/ha): 0
- Corn plant response rating (corn; Rate 62 g/ha, Postemergence): 0
- Plant response rating, Corn (corn; [4]): 0
- Plant response rating, Giant foxtail (giant foxtail; [2]): 0
- Plant response rating, Giant foxtail (giant foxtail; [3]): 0
- Giant foxtail plant response rating (0 to 10 scale) (giant foxtail; Preemergence, Rate 125 g/ha): 0
- Giant foxtail plant response rating (giant foxtail; Preemergence, Rate 250 g/ha): 0
- Giant foxtail plant response rating (giant foxtail; Preemergence, Rate 500 g/ha): 0
- Giant foxtail plant response rating (giant foxtail; Rate 62 g/ha, Postemergence): 0
- Plant response rating, Giant foxtail (giant foxtail; [4]): 0
- Plant response rating, Wild oats (wild oat; [2]): 0
- Plant response rating, Wild oats (wild oat; [3]): 0
- Wild oats plant response rating (0 to 10 scale) (wild oat; Preemergence, Rate 125 g/ha): 0
- Wild oats plant response rating (wild oat; Preemergence, Rate 250 g/ha): 0
- Wild oats plant response rating (wild oat; Preemergence, Rate 500 g/ha): 0
- Wild oats plant response rating (wild oat; Rate 62 g/ha, Postemergence): 0
- Plant response rating, Wild oats (wild oat; [4]): 0
- Plant response rating, Ducksalad (duck salad; [5]): 0
- Ducksalad plant response rating (duck salad; [6]): 0
- Plant response rating, Ducksalad (duck salad; [7]): 0
- Plant response rating, Wheat (wheat; [2]): 0
- Plant response rating, Wheat (wheat; [3]): 0
- Wheat plant response rating (0 to 10 scale) (wheat; Preemergence, Rate 125 g/ha): 0
- Wheat plant response rating (wheat; Preemergence, Rate 250 g/ha): 0
- Wheat plant response rating (wheat; Preemergence, Rate 500 g/ha): 0
- Wheat plant response rating (wheat; Rate 62 g/ha, Postemergence): 0
- Plant response rating, Wheat (wheat; [4]): 0
- Plant response rating, Redroot pigweed (pigweed; [2]): 0
- Plant response rating, Redroot pigweed (pigweed; [3]): 0
- Redroot pigweed plant response rating (0 to 10 scale) (pigweed; Preemergence, Rate 125 g/ha): 0
- Redroot pigweed plant response rating (pigweed; Preemergence, Rate 250 g/ha): 0
- Redroot pigweed plant response rating (pigweed; Preemergence, Rate 500 g/ha): 0
- Redroot pigweed plant response rating (pigweed; Rate 62 g/ha, Postemergence): 0
- Plant response rating, Redroot pigweed (pigweed; [4]): 0
- Plant response rating, Bedstraw (bedstraw; [2]): 0
- Plant response rating, Bedstraw (bedstraw; [3]): 0
- Bedstraw plant response rating (0 to 10 scale) (bedstraw; Preemergence, Rate 125 g/ha): 0
- Bedstraw plant response rating (bedstraw; [9]): 0
- Bedstraw plant response rating (bedstraw; [10]): 0
- Bedstraw plant response rating (bedstraw; [8]): 0
- Plant response rating, Bedstraw (bedstraw; [11]): 0
- Plant response rating, Bedstraw (bedstraw; [4]): 0
- Plant response rating, Cocklebur (cocklebur; [2]): 0
- Plant response rating, Cocklebur (cocklebur; [3]): 0
- Cocklebur plant response rating (0 to 10 scale) (cocklebur; Preemergence, Rate 125 g/ha): 0
- Cocklebur plant response rating (cocklebur; Preemergence, Rate 250 g/ha): 0
- Cocklebur plant response rating (cocklebur; Preemergence, Rate 500 g/ha): 0
- Cocklebur plant response rating (cocklebur; Rate 62 g/ha, Postemergence): 0
- Plant response rating, Cocklebur (cocklebur; [4]): 0
- Plant response rating, Blackgrass (blackgrass; [2]): 0
- Plant response rating, Blackgrass (blackgrass; [3]): 0
- Blackgrass plant response rating (0 to 10 scale) (blackgrass; Preemergence, Rate 125 g/ha): 0
- Blackgrass plant response rating (blackgrass; [9]): 0
- Blackgrass plant response rating (blackgrass; [10]): 0
- Blackgrass plant response rating (blackgrass; [8]): 0
- Plant response rating, Blackgrass (blackgrass; [11]): 0
- Plant response rating, Blackgrass (blackgrass; [4]): 0
